Results on 24 compounds are retold here after patent publication US20080161309A1, “Novel Compounds” (priority 2004, published 2008).

Where a name gives a salt, the structure may show the parent alone. Read-outs that look alike come from different tables or passages of the source.

Series [1] concerns the target T1, human norepinephrine transporter (hNET) (Homo sapiens, UniProt P23975).
T1 construct: expressed in transfected cells; host or cells: HEK-293, membranes
Description: hNET receptor binding, [125I]-RTI-55, HEK-293 membranes. The note with it: Cheng-Prusoff, read-out: NET Ki. Here is the method: Cell pastes of HEK-293 cells transfected with a human norepinephrine transporter cDNA were prepared. The cell pastes were resuspended in 400 to 700 ml of Krebs-HEPES assay buffer (25 mM HEPES, 122 mM NaCl, 3 mM KCl, 1.2 mM MgSO4, 1.3 mM CaCl2, and 11 mM glucose, pH 7.4) with a Polytron homogenizer at setting 7 for 30 seconds. Aliquots of membranes (5 mg/ml protein) were stored in liquid nitrogen until used.
The binding assay was set up in Beckman deep-well polypropylene plates with a total volume of 250 μl containing: drug (10^−5M to 10^−12M), cell membranes, and […] [^125I]-RTI-55 (Perkin Elmer, NEX-272; specific activity 2200 Ci/mmol). The reaction was incubated by gentle agitation for 90 minutes at room temperature and was terminated by filtration through Whatman GF/C filter plates using a Brandel 96-well plate harvester. Scintillation fluid (100 μl) was added to each well, and bound [^125I]-RTI-55 was determined using a Wallac Trilux Beta Plate Counter. Test compounds were run in duplicate, and specific binding was defined as the difference between binding in the presence and absence of 10 μM desipramine.
Excel and GraphPad Prism software were used for data calculation and analysis. IC50 values were converted to Ki values using the Cheng-Prusoff equation. The Ki values (nM) for the hNET are reported below in Table 1.

In series [2] the target is T2, human serotonin transporter (hSERT) (Homo sapiens, UniProt P31645).
T2 construct: expressed in transfected cells; host or cells: HEK-293, membranes
In words: hSERT receptor binding, [125I]-RTI-55, HEK-293 membranes. Here is the method: Cell pastes of HEK-293 cells transfected with a human serotonin transporter cDNA were prepared. […] Aliquots of membranes (−2.5 mg/ml protein) were stored in liquid nitrogen until used.
The reaction was incubated and gently agitated for 90 minutes at room temperature, and terminated by removal of assay volume. […] Test compounds were run in duplicate, and specific binding was defined as the difference between binding in the presence and absence of 10 μM citalopram. Excel and GraphPad Prism software were used for data calculation and analysis. IC50 values were converted to Ki values using the Cheng-Prusoff equation.

For series [3], the system named is capsaicin-induced mechanical allodynia. In words: Rat model of capsaicin-induced mechanical allodynia. As to conditions: sc, read-out: % Inhibition of allodynia. The format is in vivo. Here is the method: Compounds of the present invention may be assayed for their ability to treat fibromylagia—like pain in a rat model of capsaicin-induced mechanical allodynia (e.g., Sluka, K A, (2002) J of Neuroscience, 22(13): 5687-5693). For example, a rat model of capsaicin-induced mechanical allodynia) was be carried out as follows:
On day 0, male Sprague-Dawley rats (˜150 g) in the dark cycle were placed in suspended wire-bottom cages and allowed to acclimate for 0.5 hour in a darkened, quiet room. The day 0 paw withdrawal threshold (PWT) was determined on the left hind paw by Von Frey hair assessment using the Dixon up and down method. After assessment, the plantar muscle of the right hind paw was injected with 100 μl capsaicin (0.25% (w/v) in 10% ethanol, 10% Tween 80, in sterile saline). On day 6 the PWT of the left hindpaw (contralateral from injection site) was determined for each animal. Animals from the day 6 prereads with PWT≦11.7 g were considered allodynic responders and were regrouped so that each cage had similar mean PWT values. On day 7, responders were dosed subcutaneously with 10 mg compound/kg body weight, or with vehicle alone. The vehicle was phosphate buffered saline containing 2% Cremophor® EL (BASF). The contralateral PWT values were determined at 1 hour after the single dose, with the investigator blinded to the dosing scheme.
In addition, the day 6 PWT was subtracted from the day 0 PWT to give the baseline window of allodynia present in each animal.

Series [4] is described as follows: Vapor sorption analysis of salts. The format is physicochemical. The note with it: 90% relative humidity, 25° C.; for moles water uptake per total moles of sample at 90% RH: calculated; for % mass change at 90% RH: compared to original mass of sample. Here is the method: The propensity of besylate, hydrochloride, edisylate and fumarate salts of (2S)-2-[(S)-(4-chloro-2-methoxyphenoxy)(phenyl)methyl]morpholine to absorb water vapor was studied at various relative humidities (RH). The besylate, hydrochloride, and edisylate salts were analysed using a VTI Corporation SGA-100 Symmetric Vapor Sorption Analyzer equipped with a CI Electronics Limited, CI MK2, 1 Gram Microbalance, an EdgeTech MODEL 2000 […] DF DEWPOINT HYGROMETER, and an JULABO USA, Inc F25-HE Refrigerated and Heated Circulator. The following method was used:
The propensity of (2S)-2-[(S)-(4-chloro-2-methoxyphenoxy)(phenyl)methyl]morpholine […] to absorb water was similarly analyzed using a VTI Corporation SGA-100 Symmetric Vapor Sorption Analyzer equipped with a CAHN INSTRUMENTS INC, INC. D-200 Digital Recording Balance, an EdgeTech MODEL 2000 […] DF DEWPOINT HYGROMETER, and a JULABO USA, Inc F25-HD Refrigerated and Heated Circulator.

The mark [5] stands for this setting: [125I]-RTI-55, HEK-293 membranes, Cheng-Prusoff, read-out: SERT Ki.
[6] abbreviates: male Sprague-Dawley rats, 10 mg/kg subcutaneously, PWT 1 hour after single dose, mean of eight animals, normalized for vehicle.

T1 sequence (P23975 whole entry): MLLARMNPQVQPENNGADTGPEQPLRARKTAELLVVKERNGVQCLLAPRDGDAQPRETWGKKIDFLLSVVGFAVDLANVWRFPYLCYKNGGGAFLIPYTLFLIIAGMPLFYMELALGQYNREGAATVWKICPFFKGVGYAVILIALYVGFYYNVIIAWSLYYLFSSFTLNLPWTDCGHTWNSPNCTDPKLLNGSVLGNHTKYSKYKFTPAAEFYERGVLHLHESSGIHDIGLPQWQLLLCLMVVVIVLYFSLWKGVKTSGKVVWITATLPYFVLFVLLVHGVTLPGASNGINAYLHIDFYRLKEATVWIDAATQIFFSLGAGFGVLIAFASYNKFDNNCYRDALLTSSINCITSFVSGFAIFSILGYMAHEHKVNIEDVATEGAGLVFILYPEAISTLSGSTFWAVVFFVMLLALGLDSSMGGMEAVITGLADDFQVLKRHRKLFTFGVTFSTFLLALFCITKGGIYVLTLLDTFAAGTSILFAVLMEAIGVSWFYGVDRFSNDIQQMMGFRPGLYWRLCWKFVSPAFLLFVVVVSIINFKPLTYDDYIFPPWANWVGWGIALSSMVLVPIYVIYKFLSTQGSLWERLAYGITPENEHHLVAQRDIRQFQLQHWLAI
T2 sequence (P31645 whole entry): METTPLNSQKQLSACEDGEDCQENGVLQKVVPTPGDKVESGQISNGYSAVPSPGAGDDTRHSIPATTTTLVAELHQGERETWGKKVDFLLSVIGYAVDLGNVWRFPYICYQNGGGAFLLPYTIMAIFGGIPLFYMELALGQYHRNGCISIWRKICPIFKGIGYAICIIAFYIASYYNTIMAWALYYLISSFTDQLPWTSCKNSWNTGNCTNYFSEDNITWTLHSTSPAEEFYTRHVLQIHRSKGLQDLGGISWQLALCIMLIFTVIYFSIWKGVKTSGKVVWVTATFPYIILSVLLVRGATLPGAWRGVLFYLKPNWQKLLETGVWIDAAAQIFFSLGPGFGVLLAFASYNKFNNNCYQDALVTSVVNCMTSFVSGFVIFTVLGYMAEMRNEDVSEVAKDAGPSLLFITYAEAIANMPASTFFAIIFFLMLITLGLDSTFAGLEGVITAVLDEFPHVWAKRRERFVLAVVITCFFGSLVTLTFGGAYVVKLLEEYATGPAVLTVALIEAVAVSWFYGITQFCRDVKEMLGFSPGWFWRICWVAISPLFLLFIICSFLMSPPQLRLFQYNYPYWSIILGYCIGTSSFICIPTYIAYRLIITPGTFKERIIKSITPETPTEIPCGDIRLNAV

One may read the Ki as a measure of affinity in units of concentration, obtained from inhibition or displacement. In the case of `Fc1cccc([C@H](Oc2ccc(F)cc2Cl)[C@@H]2CNCCO2)c1` [Example 37, (2S)-2-[(1S)-(2-chloro-4-fluorophenoxy)-(3-fluorophenyl)methyl]morpholine hydrochloride], the Ki in series [1] was 13.1 nM; in series [2] (setting [5]), 52.2 nM. Further, the inhibition in vivo at 10 mg/kg in series [3] (setting [6]) is 80.3%.
Taken in the same sequence, the figures for `COc1cccc([C@H](Oc2ccc(C)cc2OC)[C@@H]2CNCCO2)c1` [Example 62, (2S)-2-[(1S)-(2-Methoxy-4-methylphenoxy) (3-methoxyphenyl)methyl] morpholine hydrochloride] were 15.3 nM, 153 nM and 40.5%.
Taken in the same sequence, the figures for `Fc1cccc([C@H](Oc2cc(F)ccc2Cl)[C@@H]2CNCCO2)c1` [Example 41, (2S)-2-[(1S)-(2-Chloro-5-fluorophenoxy)(3-fluorophenyl)methyl] morpholine hydrochloride] were 7.3 nM, 126 nM and 21.1%.
For `COc1cc(Cl)ccc1O[C@@H](c1ccccc1)[C@@H]1CNCCO1.O=C(O)/C=C/C(=O)O` [fumaric, (2S)-2-[(1S)-(4-chloro-2-methoxyphenoxy) (phenyl)methyl]morpholine fumarate], in series [4], the “moles water uptake per total moles of sample at 90% RH” value is 0.69 and the “% mass change at 90% RH” value came out at 2.8%.
As to `COc1cc(Cl)c(Cl)cc1O[C@@H](c1ccccc1)[C@@H]1CNCCO1` [Example 93, (2S)-2-[(1S)-(4,5-Dichloro-2-methoxyphenoxy)phenylmethyl] morpholine fumarate], the results for the Ki in series [1] and in series [2] (setting [5]) were 164 nM and 70 nM, respectively. Besides, the inhibition in vivo at 10 mg/kg in series [3] (setting [6]) is 39%.
On the same counts, the results for `Clc1ccc(Cl)c(O[C@@H](c2ccccc2)[C@@H]2CNCCO2)c1` [Example 89, (2S)-2-[(1S)-(2,5-Dichlorophenoxy)phenylmethyl] morpholine fumarate] are 20.3 nM, 171 nM and 27.8%.
On the same counts, the results for `Fc1c(Cl)cccc1O[C@@H](c1ccccc1)[C@@H]1CNCCO1` [Example 80, (2S)-2-[(1S)-(3-chloro-2-fluoro-phenoxy)-phenyl-methyl]-morpholine fumarate salt] are 4.4 nM, 127 nM and 40%.
What is called melting point is the temperature of the solid-liquid transition. `Fc1c(Cl)cccc1OC(c1ccccc1)C1CNCCO1` (stereo not drawn) (as salt: edisylate) [Example 8] came in with a melting point of 189.23 °C.
In the case of “(2S)-2-[(S)-(4-chloro-2-methoxyphenoxy)(phenyl)methyl]morpholine edisylate”, in series [4], the “moles water uptake per total moles of sample at 90% RH” value is recorded as 1.32 and the “% mass change at 90% RH” value is recorded as 4.6%.
For the compound `c1ccc(C(Oc2cccc3cccnc23)C2CNCCO2)cc1` (stereo not drawn) (as salt: succinate) [Example 9], the melting point is 98.24 °C.
Still for that read-out and setting: next, `Fc1cc(Cl)ccc1OC(c1ccccc1)C1CNCCO1` (stereo not drawn) (as salt: tartrate) [Example 5]: 92.68 °C.
Consider `Cc1ccc(Cl)c(O[C@@H](c2ccccc2)[C@@H]2CNCCO2)c1` [Example 87, (2S)-2-[(1S)-(2-Chloro-5-methylphenoxy)phenylmethyl] morpholine fumarate], for which the Ki in series [1] amounted to 18 nM; in series [2] (setting [5]), 184 nM. Besides, the inhibition in vivo at 10 mg/kg in series [3] (setting [6]) was 9.3%.
Compound `Fc1ccc(OC(c2ccccc2)C2CNCCO2)c(F)c1` (stereo not drawn) (as salt: hydrobromid) [Example 7] showed a melting point of 106.48 °C.
`COc1cc(F)ccc1O[C@@H](c1cccc(Cl)c1)[C@@H]1CNCCO1` [Example 52, (2S)-2-[(1S)-(3-Chlorophenyl) (4-fluoro-2-methoxyphenoxy)methyl] morpholine hydrochloride]: the Ki in series [1] was found to be 549 nM; in series [2] (setting [5]), 194 nM. Besides, the inhibition in vivo at 10 mg/kg in series [3] (setting [6]) is 7%.
In turn, `Fc1cccc(OC(c2ccccc2)C2CNCCO2)c1F` (stereo not drawn) (as salt: fumarate) [Example 6] displayed a melting point of 119.96 °C.
The same measure, in the same setting: next, `COc1cc(Cl)ccc1OC(c1ccc(F)cc1)C1CNCCO1` (stereo not drawn) (as salt: hydrochloride) [Example 2]: 148.11 °C.
Take `COc1cc(Cl)ccc1O[C@@H](c1cccc(F)c1)[C@@H]1CNCCO1` [Example 45, (2S)-2-[(1S)-(4-Chloro-2-methoxyphenoxy)(3-fluorophenyl)methyl] morpholine hydrochloride]: the Ki in series [1] was found to be 10.5 nM; in series [2] it was 30 nM. Also, the inhibition in vivo at 10 mg/kg in series [3] (1 h) came out at 54.6%.
Compound `COc1cc(Cl)ccc1OC(c1cccc(F)c1)C1CNCCO1` (stereo not drawn) (as salt: camsylate) [Example 3] came in with a melting point of 162.03 °C.
Turning to `COc1cc(F)ccc1O[C@@H](c1cccc(F)c1)[C@@H]1CNCCO1` [Example 46, (2S)-2-[(1S)-(4-Fluoro-2-methoxyphenoxy)(3-fluorophenyl)methyl] morpholine hydrochloride], the inhibition constant Ki in series [1] is 15.1 nM; in series [2] (setting [5]), 222 nM. Also, in series [3] (setting [6]), the inhibition in vivo at 10 mg/kg turned out to be 46.1%.
Take `COc1cc(C)ccc1O[C@@H](c1cccc(F)c1)[C@@H]1CNCCO1` [Example 79, (2S)-2-[(1S)-(3-Fluorophenyl)(2-methoxy-4-methylphenoxy)-methyl]morpholine hydrochloride]: the Ki in series [1] was found to be 12.6 nM; in series [2] (setting [5]) it was 100 nM. Also, in series [3] (setting [6]), the inhibition in vivo at 10 mg/kg amounted to 99.5%.
Taken in the same sequence, the figures for `Fc1cccc([C@H](Oc2cc(F)cc(F)c2Cl)[C@@H]2CNCCO2)c1` [Example 48, (2S)-2-[(1S)-(2-Chloro-3,5-difluorophenoxy)(3-fluorophenyl)methyl] morpholine hydrochloride] were 16.5 nM, 80 nM and 6.5%.
On the same counts, the results for `Fc1ccc(O[C@@H](c2ccccn2)[C@@H]2CNCCO2)c(Cl)c1` [Example 105, (2S)-2-[(1S)-(2-chloro-4-fluorophenoxy)(pyridin-2-yl)methyl]morpholine fumarate] are 3.5 nM, 621 nM and 13.7%.
In turn, `FC(F)Oc1cc(Cl)ccc1OC(c1ccccc1)C1CNCCO1` (stereo not drawn) (as salt: citrate) [Example 4] showed a melting point of 119.29 °C.
`Fc1ccc(O[C@@H](c2cccc(Cl)c2)[C@@H]2CNCCO2)c(Cl)c1` [Example 102, (2S)-2-[(1S)-(2-Chloro-4-fluorophenoxy) (3-chlorophenyl)methyl] morpholine fumarate]: the inhibition constant Ki is 48.3 nM in series [1] and 222 nM in series [2] (setting [5]). Also, the inhibition in vivo at 10 mg/kg in series [3] (setting [6]) is 59.5%.
